Test results from US20260069584A1, “METHODS OF TREATING CHRONIC MYELOID LEUKEMIA USING THE TYROSINE KINASE INHIBITOR VODOBATINIB” (Sun Pharma Advanced Research Company Ltd., priority 2022, published 2026).

Assay: Part B: safety, treatment-emergent adverse events, DLT and MTD
Assay type: in vivo
Excerpt: For the purpose of the present invention, the adverse events were graded as per the National Cancer Institute's, Common Terminology Criteria for Adverse Events (NCI-CTCAE) Version 4.03 and Version 5.0 (https://evs.nci.nih.gov/ftp1/CTCAE/About.html). It is a descriptive terminology which can be utilized for Adverse Event (AE) reporting.
AEs were graded as per NCI-CTCAE Version 5.0. In the present study, along with others most common AEs for which patients were monitored were thrombocytopenia, neutropenia and anemia, any AE reported by the patient after the completion of AE collection period and considered related to the study drug was reported.
Dose Limiting Toxicity (DLT) is defined as the occurrence of any of the following unless clearly and incontrovertibly related to the underlying disease. The hematological DLTs were defined as per the Phase of CML: • a) Grade 3 or higher, or other non-hematological toxicity, including nausea, vomiting and diarrhea, and refractory to standard antiemetic therapy except alopecia and nail disorders; • b) Missed ≥25% of doses over 28 days due to toxicity in Cycle 1; and • c) Any grade of toxicity requiring dose reduction or discontinuation of IMP within the 28-days DLT assessment period (Cycle 1).
Safety Parameters: Parts B and C: Descriptive summaries were provided for the safety variables collected. Continuous variables were summarized using mean, standard deviation, minimum, median, and maximum. Categorical variables were summarized using frequency counts and percentages. For time-to-event variables, other percentiles were presented. In addition, summaries of AEs by intensity, seriousness, frequency, and relationship to IMP are presented. Adverse events (AE) s were coded using the Medical Dictionary for Regulatory Activities (MedDRA) and summarized by System Organ Class (SOC) and Preferred Term (PT).
In this study, the dose-escalation cohort started with an accelerated titration study design (ATD) and shifted to a 3±3 design when subjects in the preceding ATD cohort experienced either grade 2 or higher adverse events (AEs) or dose-limiting toxicity (DLT) during Cycle 1 that was not clearly and incontrovertibly related to the underlying disease or concomitant medications. The DLT period consisted of 28 days (Cycle 1). Subjects experiencing DLTs were managed with dose delays and/or discontinuation and continued in the study until disease progression. Decisions to advance to a succeeding dose level occurred after the evaluation of safety and tolerability data for a given dose level.
For the cohorts, where the 3±3 design applies, 3 subjects were enrolled initially. If 2 of these subjects experienced a Grade 2 or more toxicity (that was not clearly and incontrovertibly related to the underlying disease or concomitant medications), subsequent cohorts were escalated according to smaller increments. Further, if there were no DLTs in the first 3 subjects, dose escalation to the next higher dose level was allowed to proceed. If 1 of the 3 subjects experienced a DLT, that dose level was expanded to 6 subjects (3 additional subjects were enrolled). If 2 subjects at a given dose level experienced a DLT, the MTD was considered to have been exceeded. The next lower dose level was expanded to 6 subjects, or if 6 subjects had already been enrolled and no more than 1 of the 6 subjects experienced a DLT, then this lower dose level was considered the MTD. Additional subjects were enrolled in dose escalation cohorts for further assessment of safety and efficacy of the compound of Formula 1 at doses that were tolerated (i.e., doses that have <2 DLTs in 6 enrolled subjects or <1 DLT in 3 enrolled subjects). Thus 204 mg was arrived at as MTD. A subject experiencing a DLT was allowed to continue therapy with a reduced dose. Subjects who experienced a DLT and recovered were treated at the next lower dose level until disease progression or other events requiring further dose reduction existed. […]

Cc1ccc(C(=O)NNC(=O)c2c(C)cccc2Cl)cc1C#Cc1cnc2ccccc2c1 [compound of Formula I, N′-(2-chloro-6-methylbenzoyl)-4-methyl-3-[2-(3-quinolyl)ethynyl]-benzohydrazide]
anemia (grade 3 or 4): 13% | diarrhea (grade 3 or 4): 2% | thrombocytopenia (grade 3 or 4): 18.8% | deaths during the study (human, in vivo): 5 | daily doses at which dose-limiting toxicities were present (human, in vivo, 28 days): 240 mg | dose modification (of patients): 20.7% | temporary dose interruptions (of patients): 37.7% | MTD (maximum tolerated dose) (oral, once daily): 204 mg | deaths considered related to the compound (out of 5 deaths): 1 | TEAEs, any grade (overall 53 patients): 96.2% | grade 3 or 4 TEAEs (overall 53 patients): 64.1% | highest efficacious and tolerable daily dose (patients with prior TKI exposure, mutations and ACAs): 204 mg | All TEAEs, Any grade (≤2 prior TKIs (N = 18)): 16 No of pts | All TEAEs, Grade 3/4 (≤2 prior TKIs (N = 18)): 6 No of pts | Amylase increased, Any grade (≤2 prior TKIs (N = 18)): 0 No of pts | Amylase increased, Grade 3/4 (≤2 prior TKIs (N = 18)): 0 No of pts | Anemia, Any grade (≤2 prior TKIs (N = 18)): 2 No of pts | Anemia, Grade 3/4 (≤2 prior TKIs (N = 18)): 2 No of pts | Back pain, Any grade (≤2 prior TKIs (N = 18)): 1 No of pts | Back pain, Grade 3/4 (≤2 prior TKIs (N = 18)): 0 No of pts | Constipation, Any grade (≤2 prior TKIs (N = 18)): 2 No of pts | Constipation, Grade 3/4 (≤2 prior TKIs (N = 18)): 0 No of pts | Cough, Any grade (≤2 prior TKIs (N = 18)): 3 No of pts | Cough, Grade 3/4 (≤2 prior TKIs (N = 18)): 0 No of pts | Death, Any grade (≤2 prior TKIs (N = 18)): 3 No of pts | Death, Grade 3/4 (≤2 prior TKIs (N = 18)): 0 No of pts | Decreased appetite, Any grade (≤2 prior TKIs (N = 18)): 1 No of pts | Decreased appetite, Grade 3/4 (≤2 prior TKIs (N = 18)): 0 No of pts | Diarrhoea, Any grade (≤2 prior TKIs (N = 18)): 1 No of pts | Diarrhoea, Grade 3/4 (≤2 prior TKIs (N = 18)): 0 No of pts | Fatigue, Any grade (≤2 prior TKIs (N = 18)): 2 No of pts | Fatigue, Grade 3/4 (≤2 prior TKIs (N = 18)): 0 No of pts | Headache, Any grade (≤2 prior TKIs (N = 18)): 1 No of pts | Headache, Grade 3/4 (≤2 prior TKIs (N = 18)): 0 No of pts | Lipase increased, Any grade (≤2 prior TKIs (N = 18)): 0 No of pts | Lipase increased, Grade 3/4 (≤2 prior TKIs (N = 18)): 0 No of pts | Myalgia, Any grade (≤2 prior TKIs (N = 18)): 1 No of pts | Myalgia, Grade 3/4 (≤2 prior TKIs (N = 18)): 0 No of pts | Nasopharyngitis, Any grade (≤2 prior TKIs (N = 18)): 3 No of pts | Nasopharyngitis, Grade 3/4 (≤2 prior TKIs (N = 18)): 0 No of pts | Nausea, Any grade (≤2 prior TKIs (N = 18)): 0 No of pts | Nausea, Grade 3/4 (≤2 prior TKIs (N = 18)): 0 No of pts | Neutropenia, Any grade (≤2 prior TKIs (N = 18)): 2 No of pts | Neutropenia, Grade 3/4 (≤2 prior TKIs (N = 18)): 2 No of pts | Pruritis, Any grade (≤2 prior TKIs (N = 18)): 2 No of pts | Pruritis, Grade 3/4 (≤2 prior TKIs (N = 18)): 0 No of pts | Pyrexia, Any grade (≤2 prior TKIs (N = 18)): 2 No of pts | Pyrexia, Grade 3/4 (≤2 prior TKIs (N = 18)): 0 No of pts | Rhinitis, Any grade (≤2 prior TKIs (N = 18)): 2 No of pts | Rhinitis, Grade 3/4 (≤2 prior TKIs (N = 18)): 0 No of pts | SAEs, Any grade (≤2 prior TKIs (N = 18)): 6 No of pts | SAEs, Grade 3/4 (≤2 prior TKIs (N = 18)): 2 No of pts | TEAEs Leading to drug withdrawal, Any grade (≤2 prior TKIs (N = 18)): 3 No of pts | TEAEs Leading to drug withdrawal, Grade 3/4 (≤2 prior TKIs (N = 18)): 0 No of pts | TEAEs Related to comp of Formula I, Any grade (≤2 prior TKIs (N = 18)): 12 No of pts | TEAEs Related to comp of Formula I, Grade 3/4 (≤2 prior TKIs (N = 18)): 3 No of pts | TEAEs: Dose discontinued and restarted, Any grade (≤2 prior TKIs (N = 18)): 5 No of pts | TEAEs: Dose discontinued and restarted, Grade 3/4 (≤2 prior TKIs (N = 18)): 2 No of pts | TEAEs: Dose modifications, Any grade (≤2 prior TKIs (N = 18)): 1 No of pts | TEAEs: Dose modifications, Grade 3/4 (≤2 prior TKIs (N = 18)): 1 No of pts | Thrombocytopenia, Any grade (≤2 prior TKIs (N = 18)): 7 No of pts | Thrombocytopenia, Grade 3/4 (≤2 prior TKIs (N = 18)): 3 No of pts | Vomiting, Any grade (≤2 prior TKIs (N = 18)): 0 No of pts | Vomiting, Grade 3/4 (≤2 prior TKIs (N = 18)): 0 No of pts | All TEAEs, Any grade (≥3 prior TKIs (N = 35)): 35 No of pts | All TEAEs, Grade 3/4 (≥3 prior TKIs (N = 35)): 28 No of pts | Amylase increased, Any grade (≥3 prior TKIs (N = 35)): 5 No of pts | Amylase increased, Grade 3/4 (≥3 prior TKIs (N = 35)): 4 No of pts | Anemia, Any grade (≥3 prior TKIs (N = 35)): 9 No of pts | Anemia, Grade 3/4 (≥3 prior TKIs (N = 35)): 5 No of pts | Back pain, Any grade (≥3 prior TKIs (N = 35)): 6 No of pts | Back pain, Grade 3/4 (≥3 prior TKIs (N = 35)): 0 No of pts | Constipation, Any grade (≥3 prior TKIs (N = 35)): 6 No of pts | Constipation, Grade 3/4 (≥3 prior TKIs (N = 35)): 0 No of pts | Cough, Any grade (≥3 prior TKIs (N = 35)): 8 No of pts | Cough, Grade 3/4 (≥3 prior TKIs (N = 35)): 0 No of pts | Death, Any grade (≥3 prior TKIs (N = 35)): 2 No of pts | Death, Grade 3/4 (≥3 prior TKIs (N = 35)): 0 No of pts | Decreased appetite, Any grade (≥3 prior TKIs (N = 35)): 5 No of pts | Decreased appetite, Grade 3/4 (≥3 prior TKIs (N = 35)): 0 No of pts | Diarrhoea, Any grade (≥3 prior TKIs (N = 35)): 11 No of pts | Diarrhoea, Grade 3/4 (≥3 prior TKIs (N = 35)): 1 No of pts | Fatigue, Any grade (≥3 prior TKIs (N = 35)): 5 No of pts | Fatigue, Grade 3/4 (≥3 prior TKIs (N = 35)): 0 No of pts | Headache, Any grade (≥3 prior TKIs (N = 35)): 7 No of pts | Headache, Grade 3/4 (≥3 prior TKIs (N = 35)): 0 No of pts | Lipase increased, Any grade (≥3 prior TKIs (N = 35)): 5 No of pts | Lipase increased, Grade 3/4 (≥3 prior TKIs (N = 35)): 4 No of pts | Myalgia, Any grade (≥3 prior TKIs (N = 35)): 6 No of pts | Myalgia, Grade 3/4 (≥3 prior TKIs (N = 35)): 0 No of pts | Nasopharyngitis, Any grade (≥3 prior TKIs (N = 35)): 3 No of pts | Nasopharyngitis, Grade 3/4 (≥3 prior TKIs (N = 35)): 0 No of pts | Nausea, Any grade (≥3 prior TKIs (N = 35)): 8 No of pts | Nausea, Grade 3/4 (≥3 prior TKIs (N = 35)): 0 No of pts | Neutropenia, Any grade (≥3 prior TKIs (N = 35)): 6 No of pts | Neutropenia, Grade 3/4 (≥3 prior TKIs (N = 35)): 5 No of pts | Pruritis, Any grade (≥3 prior TKIs (N = 35)): 4 No of pts | Pruritis, Grade 3/4 (≥3 prior TKIs (N = 35)): 0 No of pts | Pyrexia, Any grade (≥3 prior TKIs (N = 35)): 6 No of pts | Pyrexia, Grade 3/4 (≥3 prior TKIs (N = 35)): 1 No of pts | Rhinitis, Any grade (≥3 prior TKIs (N = 35)): 4 No of pts | Rhinitis, Grade 3/4 (≥3 prior TKIs (N = 35)): 0 No of pts | SAEs, Any grade (≥3 prior TKIs (N = 35)): 14 No of pts | SAEs, Grade 3/4 (≥3 prior TKIs (N = 35)): 10 No of pts | TEAEs Leading to drug withdrawal, Any grade (≥3 prior TKIs (N = 35)): 3 No of pts | TEAEs Leading to drug withdrawal, Grade 3/4 (≥3 prior TKIs (N = 35)): 2 No of pts | TEAEs Related to comp of Formula I, Any grade (≥3 prior TKIs (N = 35)): 23 No of pts | TEAEs Related to comp of Formula I, Grade 3/4 (≥3 prior TKIs (N = 35)): 11 No of pts | TEAEs: Dose discontinued and restarted, Any grade (≥3 prior TKIs (N = 35)): 15 No of pts | TEAEs: Dose discontinued and restarted, Grade 3/4 (≥3 prior TKIs (N = 35)): 10 No of pts | TEAEs: Dose modifications, Any grade (≥3 prior TKIs (N = 35)): 10 No of pts | TEAEs: Dose modifications, Grade 3/4 (≥3 prior TKIs (N = 35)): 5 No of pts | Thrombocytopenia, Any grade (≥3 prior TKIs (N = 35)): 17 No of pts | Thrombocytopenia, Grade 3/4 (≥3 prior TKIs (N = 35)): 7 No of pts | Vomiting, Any grade (≥3 prior TKIs (N = 35)): 7 No of pts | Vomiting, Grade 3/4 (≥3 prior TKIs (N = 35)): 0 No of pts
